# Assay results taken from the supplement of paper PMC11061612.
# Experiments:
# [1] = system: OVCAR-8 (Ovarian Carcinoma); assay: Bliss excess, mean over the matrix (fraction); higher = more synergy
# Method in brief: (§1)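 After 24 hours at 37°C and 5% CO2 in 1536-well plates, cells in DMEM/F12 or RPMI plus 10% FBS received two-drug dose matrices for 72 hours. Viability came from CellTiter-Glo 2.0 luminescence and was scaled as inhibition, anchored at 0 by vehicle wells and at 1 by blank wells. Combination Emax is taken as the second-highest inhibition in the matrix, and Bliss excess as the observed combination effect less EA + EB − EA·EB, with EA and EB the single-agent effects.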
# [2] = system: LU-139 (Small Cell Lung Carcinoma); assay: as above
# Method in brief: as §1
# [3] = system: OC-314 (Ovarian Carcinoma); assay: as above
# Method in brief: as §1
# [4] = system: HO-1-u-1 (Oral Cavity Carcinoma); assay: as above
# Method in brief: as §1
# HMV-II (Melanoma) = assay: combination Emax (second highest fraction inhibited in the dose matrix, 72 h); higher = more inhibition; extreme values may be limits of the assay
# Method in brief: as §1
# Mewo (Melanoma) = assay: as above
# Method in brief: as §1
# [5] = system: OVCAR-8 (Ovarian Carcinoma); assay: as above
# Method in brief: as §1
# [6] = system: HARA (Squamous Cell Lung Carcinoma); assay: as above
# Method in brief: as §1
# [7] = system: 8305C (Thyroid Gland Carcinoma); assay: as above
# Method in brief: as §1
# [8] = system: NCI-H69 (Small Cell Lung Carcinoma); assay: as above
# Method in brief: as §1
# [9] = system: RKO (Colorectal Carcinoma); assay: as above
# Method in brief: as §1
# [10] = system: MHH-PREB-1 (B-Cell Non-Hodgkin's Lymphoma); assay: as above
# Method in brief: as §1
# [11] = system: LoVo (Colorectal Carcinoma); assay: as above
# Method in brief: as §1
# [12] = system: PCI-30 (Head and Neck Carcinoma); assay: as above
# Method in brief: as §1
# COLO-829 (Melanoma) = assay: as above
# Method in brief: as §1
# [13] = system: OC-314 (Ovarian Carcinoma); assay: as above
# Method in brief: as §1
# [14] = system: SW1116 (Colorectal Carcinoma); assay: as above
# Method in brief: as §1
# [15] = system: NCI-H747 (Colorectal Carcinoma); assay: as above
# Method in brief: as §1
# [16] = system: TE-4 (Esophageal Squamous Cell Carcinoma); assay: as above
# Method in brief: as §1
# [17] = system: CAL-51 (Breast Carcinoma); assay: as above
# Method in brief: as §1
# 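Wherever Bliss excess, mean over the matrix is given: after 72 h of two-drug dosing.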
structure (smiles),measurement,setting,value
"COc1cccc(OCCCN)c1-c1cc(Nc2cnc(C#N)cn2)n[nH]1 [Prexasertib] + Cc1cc2ncnn2cc1Nc1ncc2c(n1)n(C1CCOCC1)c(=O)n2C [AZD7648] (first compound max 1 µM, 7x7, partner max 10 µM)",Bliss excess,[1],0.0125
same,Bliss excess,[2],-0.015
same,Bliss excess,[3],-0.0286
same,Bliss excess,[4],0.0035
same,combination Emax,HMV-II (Melanoma),0.525
same,combination Emax,Mewo (Melanoma),0.516
same,combination Emax,[5],0.984
same,combination Emax,[6],0.953
same,combination Emax,[7],0.724
same,combination Emax,[8],0.583
same,combination Emax,[9],0.901
same,combination Emax,[10],0.947
same,combination Emax,[11],0.879
same,combination Emax,[12],0.721
same,combination Emax,COLO-829 (Melanoma),0.398
same,combination Emax,[13],0.946
same,combination Emax,[14],0.463
same,combination Emax,[15],0.396
same,combination Emax,[16],0.597
same,combination Emax,[17],0.916
"CN(CCO)CC[C@H](CSc1ccccc1)Nc1ccc(S(=O)(=O)NC(=O)c2ccc(N3CCC([C@@H](O)c4ccccc4-c4ccc(Cl)cc4)CC3)cc2)cc1S(=O)(=O)C(F)(F)F [AZD4320] + Cn1cnc2c(F)c(Nc3ccc(Br)cc3Cl)c(C(=O)NOCCO)cc21 [Selumetinib] (first compound max 1 µM, 7x7, partner max 3 µM)",Bliss excess,[1],0.0974
same,Bliss excess,[2],-0.006
same,Bliss excess,[3],0.0048
same,Bliss excess,[4],0.0328
same,combination Emax,HMV-II (Melanoma),0.826
same,combination Emax,Mewo (Melanoma),0.528
same,combination Emax,[5],0.498
same,combination Emax,[6],0.219
same,combination Emax,[7],0.71
same,combination Emax,[8],0.885
same,combination Emax,[9],0.754
same,combination Emax,[10],0.164
same,combination Emax,[11],0.516
same,combination Emax,[12],0.224
same,combination Emax,COLO-829 (Melanoma),0.601
same,combination Emax,[13],0.351
same,combination Emax,[14],0.599
same,combination Emax,[15],0.793
same,combination Emax,[16],0.308
same,combination Emax,[17],0.487
"CCN(CCO)CCCOc1ccc2c(Nc3cc(CC(=O)Nc4cccc(F)c4)[nH]n3)ncnc2c1 [AZD2811] + O=C(c1cc(Cc2n[nH]c(=O)c3ccccc23)ccc1F)N1CCN(C(=O)C2CC2)CC1 [Olaparib] (first compound max 1 µM, 7x7, partner max 10 µM)",Bliss excess,[1],0.0244
same,Bliss excess,[2],-0.0495
same,Bliss excess,[3],0.0254
same,Bliss excess,[4],0.0288
same,combination Emax,HMV-II (Melanoma),0.203
same,combination Emax,Mewo (Melanoma),0.226
same,combination Emax,[5],0.367
same,combination Emax,[6],0.318
same,combination Emax,[7],0.169
same,combination Emax,[8],0.572
same,combination Emax,[9],0.276
same,combination Emax,[10],0.125
same,combination Emax,[11],0.354
same,combination Emax,[12],0.265
same,combination Emax,COLO-829 (Melanoma),0.254
same,combination Emax,[13],0.487
same,combination Emax,[14],0.223
same,combination Emax,[15],0.232
same,combination Emax,[16],0.145
same,combination Emax,[17],0.314
"C=CCn1c(=O)c2cnc(Nc3ccc(N4CCN(C)CC4)cc3)nc2n1-c1cccc(C(C)(C)O)n1 [AZD1775] + O=C(c1cc(Cc2n[nH]c(=O)c3ccccc23)ccc1F)N1CCN(C(=O)C2CC2)CC1 [Olaparib] (first compound max 1 µM, partner max 10 µM)",Bliss excess,[1],-0.0303
same,Bliss excess,[2],-0.0775
same,Bliss excess,[3],0.0291
same,Bliss excess,[4],-0.0521
same,combination Emax,HMV-II (Melanoma),0.401
same,combination Emax,Mewo (Melanoma),0.382
same,combination Emax,[5],0.797
same,combination Emax,[6],0.743
same,combination Emax,[7],0.506
same,combination Emax,[8],0.478
same,combination Emax,[9],0.719
same,combination Emax,[10],0.76
same,combination Emax,[11],0.781
same,combination Emax,[12],0.374
same,combination Emax,COLO-829 (Melanoma),0.174
same,combination Emax,[13],0.631
same,combination Emax,[14],0.343
same,combination Emax,[15],0.501
same,combination Emax,[16],0.366
same,combination Emax,[17],0.811
"CN(CCO)CC[C@H](CSc1ccccc1)Nc1ccc(S(=O)(=O)NC(=O)c2ccc(N3CCC([C@@H](O)c4ccccc4-c4ccc(Cl)cc4)CC3)cc2)cc1S(=O)(=O)C(F)(F)F [AZD4320] + C1CN(CCC1(C(=O)N[C@@H](CCO)C2=CC=C(C=C2)Cl)N)C3=NC=NC4=C3C=CN4 [Capivasertib] (first compound max 1 µM, 7x7, partner max 3 µM)",Bliss excess,[1],-0.0468
same,Bliss excess,[2],-0.0328
same,Bliss excess,[3],-0.0007
same,Bliss excess,[4],-0.0621
same,combination Emax,HMV-II (Melanoma),0.169
same,combination Emax,Mewo (Melanoma),0.204
same,combination Emax,[5],0.146
same,combination Emax,[6],0.298
same,combination Emax,[7],0.506
same,combination Emax,[8],0.892
same,combination Emax,[9],0.272
same,combination Emax,[10],0.173
same,combination Emax,[11],0.633
same,combination Emax,[12],0.191
same,combination Emax,COLO-829 (Melanoma),0.118
same,combination Emax,[13],0.261
same,combination Emax,[14],0.139
same,combination Emax,[15],0.387
same,combination Emax,[16],0.511
same,combination Emax,[17],0.504
"CC1(C)CCC(CN2CCN(c3ccc(C(=O)NS(=O)(=O)c4ccc(NCC5CCOCC5)c([N+](=O)[O-])c4)c(Oc4cnc5[nH]ccc5c4)c3)CC2)=C(c2ccc(Cl)cc2)C1 [Venetoclax] + Cc1cc2ncnn2cc1Nc1ncc2c(n1)n(C1CCOCC1)c(=O)n2C [AZD7648] (first compound max 1 µM, 7x7, partner max 10 µM)",Bliss excess,[1],-0.0014
same,Bliss excess,[2],-0.0013
same,Bliss excess,[3],-0.0115
same,Bliss excess,[4],-0.0307
same,combination Emax,HMV-II (Melanoma),0.263
same,combination Emax,Mewo (Melanoma),0.509
same,combination Emax,[5],0.229
same,combination Emax,[6],0.572
same,combination Emax,[7],0.385
same,combination Emax,[8],0.657
same,combination Emax,[9],0.275
same,combination Emax,[10],0.178
same,combination Emax,[11],0.443
same,combination Emax,[12],0.224
same,combination Emax,COLO-829 (Melanoma),0.143
same,combination Emax,[13],0.251
same,combination Emax,[14],0.151
same,combination Emax,[15],0.414
same,combination Emax,[16],0.228
same,combination Emax,[17],0.289
